Columns and labels:
MCF7 [1] = assay: Cytotoxicity against human MCF7 cells assessed as growth inhibition after 72 hrs by MTT colorimetric assay; format: functional, cell-based; details: MCF7, 72 h
SK-MEL-28 [2] = assay: Cytotoxicity against human SK-MEL-28 cells assessed as growth inhibition after 72 hrs by MTT colorimetric assay; format: functional, cell-based; details: SK-MEL-28, 72 h
[3] = Cytotoxicity against human Hs683 cells assessed as growth inhibition after 72 hrs by MTT colorimetric assay; format: functional, cell-based; details: Hs 683, 72 h
[4] = Cytotoxicity against human U373 cells assessed as growth inhibition after 72 hrs by MTT colorimetric assay; format: functional, cell-based, U-373MG ATCC; details: U373 MG
A549 [5] = assay: Cytotoxicity against human A549 cells assessed as growth inhibition after 72 hrs by MTT colorimetric assay; format: functional, cell-based; details: A549, 72 h
[6] = Cytotoxicity against mouse B16F10 cells assessed as growth inhibition after 72 hrs by MTT colorimetric assay; format: functional, cell-based; details: B16-F10, 72 h
[7] = Cytotoxicity against human NHLF cells assessed as growth inhibition after 72 hrs by MTT colorimetric assay; format: cell-based
NHDF = assay: Cytotoxicity against human NHDF cells assessed as growth inhibition after 72 hrs by MTT colorimetric assay; format: cell-based
[8] = Cytotoxicity against human Hs683 cells assessed as cell viability at 10 uM after 72 hrs by MTT colorimetric assay; format: functional; details: Hs 683, 72 h, read-out: Activity
A549 [9] = assay: Cytotoxicity against human A549 cells assessed as cell viability at 5 uM after 72 hrs by MTT colorimetric assay; format: functional; details: A549, 72 h, read-out: Activity
[10] = Cytotoxicity against mouse B16F10 cells assessed as cell viability at 1 uM after 72 hrs by MTT colorimetric assay; format: functional; details: B16-F10, 72 h, read-out: Activity
[11] = Cytotoxicity against human Hs683 cells assessed as cell viability at 5 uM after 72 hrs by MTT colorimetric assay; format: functional; details: Hs 683, 72 h, read-out: Activity
A549 [12] = assay: Cytotoxicity against human A549 cells assessed as cell viability at 50 uM after 72 hrs by MTT colorimetric assay; format: functional; details: A549, 72 h, read-out: Activity
MCF7 [13] = assay: Cytotoxicity against human MCF7 cells assessed as cell viability at 100 uM after 72 hrs by MTT colorimetric assay; format: functional; details: MCF7, 72 h, read-out: Activity
[14] = Cytotoxicity against human Hs683 cells assessed as cell viability at 1 uM after 72 hrs by MTT colorimetric assay; format: functional; details: Hs 683, 72 h, read-out: Activity
[15] = Cytotoxicity against human U373 cells assessed as cell viability at 0.5 uM after 72 hrs by MTT colorimetric assay; format: functional, U-373MG ATCC; details: U373 MG, read-out: Activity
A549 [16] = assay: Cytotoxicity against human A549 cells assessed as cell viability at 0.5 uM after 72 hrs by MTT colorimetric assay; format: functional; details: A549, 72 h, read-out: Activity
A549 [17] = assay: Cytotoxicity against human A549 cells assessed as cell viability at 100 uM after 72 hrs by MTT colorimetric assay; format: functional; details: A549, 72 h, read-out: Activity
[18] = Cytotoxicity against mouse B16F10 cells assessed as cell viability at 0.5 uM after 72 hrs by MTT colorimetric assay; format: functional; details: B16-F10, 72 h, read-out: Activity
MCF7 [19] = assay: Cytotoxicity against human MCF7 cells assessed as cell viability at 0.5 uM after 72 hrs by MTT colorimetric assay; format: functional; details: MCF7, 72 h, read-out: Activity
SK-MEL-28 [20] = assay: Cytotoxicity against human SK-MEL-28 cells assessed as cell viability at 0.5 uM after 72 hrs by MTT colorimetric assay; format: functional; details: SK-MEL-28, 72 h, read-out: Activity
[21] = Cytotoxicity against human Hs683 cells assessed as cell viability at 0.05 uM after 72 hrs by MTT colorimetric assay; format: functional; details: Hs 683, 72 h, read-out: Activity
SK-MEL-28 [22] = assay: Cytotoxicity against human SK-MEL-28 cells assessed as cell viability at 100 uM after 72 hrs by MTT colorimetric assay; format: functional; details: SK-MEL-28, 72 h, read-out: Activity
[23] = Cytotoxicity against human Hs683 cells assessed as cell viability at 0.5 uM after 72 hrs by MTT colorimetric assay; format: functional; details: Hs 683, 72 h, read-out: Activity
[24] = Cytotoxicity against mouse B16F10 cells assessed as cell viability at 50 uM after 72 hrs by MTT colorimetric assay; format: functional; details: B16-F10, 72 h, read-out: Activity
[25] = Cytotoxicity against human Hs683 cells assessed as cell viability at 50 uM after 72 hrs by MTT colorimetric assay; format: functional; details: Hs 683, 72 h, read-out: Activity
A549 [26] = assay: Cytotoxicity against human A549 cells assessed as cell viability at 10 uM after 72 hrs by MTT colorimetric assay; format: functional; details: A549, 72 h, read-out: Activity
[27] = Cytotoxicity against human U373 cells assessed as cell viability at 10 uM after 72 hrs by MTT colorimetric assay; format: functional, U-373MG ATCC; details: U373 MG, read-out: Activity
MCF7 [28] = assay: Cytotoxicity against human MCF7 cells assessed as cell viability at 5 uM after 72 hrs by MTT colorimetric assay; format: functional; details: MCF7, 72 h, read-out: Activity
[29] = Cytotoxicity against human Hs683 cells assessed as cell viability at 100 uM after 72 hrs by MTT colorimetric assay; format: functional; details: Hs 683, 72 h, read-out: Activity
MCF7 [30] = assay: Cytotoxicity against human MCF7 cells assessed as cell viability at 50 uM after 72 hrs by MTT colorimetric assay; format: functional; details: MCF7, 72 h, read-out: Activity
[31] = Cytotoxicity against mouse B16F10 cells assessed as cell viability at 5 uM after 72 hrs by MTT colorimetric assay; format: functional; details: B16-F10, 72 h, read-out: Activity

Row | SMILES | IC50 (MCF7 [1]) | IC50 (SK-MEL-28 [2]) | IC50 [3] | IC50 [4] | IC50 (A549 [5]) | IC50 [6] | further results
1 | COc1ccc(-c2cc(NC(=S)NNC(=O)c3ccc(C)cc3)cs2)cc1 | 40 µM | 22 µM | 30 µM | > 100 µM | 35 µM | 7 µM | –
2 | Cc1ccc(C(=O)NNC(=S)Nc2csc(-c3ccccc3)c2)cc1 | 30 µM | 40 µM | 37 µM | 62 µM | 40 µM | 24 µM | –
3 | Cc1ccc(C(=O)NNC(=S)Nc2csc(-c3ccc(C)cc3)c2)cc1 | 29 µM | 44 µM | 40 µM | 38 µM | 37 µM | 20 µM | –
4 | COc1cc(C(=O)NNC(=S)Nc2csc(-c3ccccc3)c2)cc(OC)c1OC | 43 µM | 55 µM | 42 µM | 44 µM | 39 µM | 32 µM | –
5 | COc1cc(C(=O)NNC(=S)Nc2csc(-c3ccc(C)cc3)c2)cc(OC)c1OC | 31 µM | 42 µM | 42 µM | 47 µM | 39 µM | 13 µM | –
6 | COc1ccc(C(=O)NNC(=S)Nc2csc(-c3ccccc3)c2)cc1 | 32 µM | 30 µM | 35 µM | 41 µM | 36 µM | 33 µM | –
7 | COc1ccc(C(=O)NNC(=S)Nc2csc(-c3ccc(C)cc3)c2)cc1 | 5 µM | 11 µM | 12 µM | 19 µM | 11 µM | 9 µM | IC50 [7]: 28 µM; IC50 (NHDF): 22 µM
8 | O=C(NNC(=S)Nc1csc(-c2ccccc2)c1)c1ccc(O)cc1 | 78 µM | 71 µM | 80 µM | > 100 µM | 75 µM | 40 µM | –
9 | Cc1ccc(-c2cc(NC(=S)NNC(=O)c3ccc(O)cc3)cs2)cc1 | 42 µM | 46 µM | 49 µM | 64 µM | 44 µM | 48 µM | –
10 | COc1cc(OC)cc(C(=O)NNC(=S)Nc2csc(-c3ccccc3)c2)c1 | 38 µM | 37 µM | 42 µM | 40 µM | 39 µM | 30 µM | –
11 | COc1cc(OC)cc(C(=O)NNC(=S)Nc2csc(-c3ccc(C)cc3)c2)c1 | 26 µM | 38 µM | 37 µM | 41 µM | 32 µM | 13 µM | –
12 | COc1ccc(C(=O)NNC(=S)Nc2csc(-c3ccccc3)c2)cc1OC | 21 µM | 28 µM | 22 µM | 59 µM | 20 µM | 9 µM | –
13 | COc1ccc(C(=O)NNC(=S)Nc2csc(-c3ccc(C)cc3)c2)cc1OC | 11 µM | 19 µM | 39 µM | 47 µM | 36 µM | 7 µM | –
14 | COc1ccc(-c2cc(Nc3nnc(-c4ccc(C)cc4)s3)cs2)cc1 | > 100 µM | > 100 µM | – | > 100 µM | – | – | viability at 10 µM [8]: < 50%; viability at 5 µM (A549 [9]): < 50%; viability at 1 µM [10]: < 50%
15 | Cc1ccc(-c2nnc(Nc3csc(-c4ccccc4)c3)s2)cc1 | 34 µM | > 100 µM | – | > 100 µM | – | 4 µM | viability at 5 µM [11]: < 50%; viability at 50 µM (A549 [12]): < 50%
16 | Cc1ccc(-c2cc(Nc3nnc(-c4ccc(C)cc4)s3)cs2)cc1 | – | > 100 µM | – | – | – | – | viability at 100 µM (MCF7 [13]): < 50%; viability at 1 µM [14]: < 50%; viability at 0.5 µM [15]: < 50%; viability at 1 µM [10]: < 50%; viability at 0.5 µM (A549 [16]): < 50%
17 | COc1cc(-c2nnc(Nc3csc(-c4ccccc4)c3)s2)cc(OC)c1OC | > 100 µM | > 100 µM | – | > 100 µM | – | – | viability at 100 µM (A549 [17]): < 50%; viability at 5 µM [11]: < 50%; viability at 0.5 µM [18]: < 50%
18 | COc1cc(-c2nnc(Nc3csc(-c4ccc(C)cc4)c3)s2)cc(OC)c1OC | – | – | – | – | – | 12 µM | viability at 0.5 µM [15]: < 50%; viability at 0.5 µM (MCF7 [19]): < 50%; viability at 0.5 µM (SK-MEL-28 [20]): < 50%; viability at 0.05 µM [21]: < 50%; viability at 0.5 µM (A549 [16]): < 50%
19 | COc1ccc(-c2nnc(Nc3csc(-c4ccccc4)c3)s2)cc1 | 60 µM | > 100 µM | 5 µM | 92 µM | 8 µM | 6 µM | –
20 | COc1ccc(-c2nnc(Nc3csc(-c4ccc(C)cc4)c3)s2)cc1 | – | – | – | – | – | – | viability at 0.5 µM [15]: < 50%; viability at 0.5 µM (MCF7 [19]): < 50%; viability at 100 µM (SK-MEL-28 [22]): < 50%; viability at 1 µM [10]: < 50%; viability at 0.5 µM [23]: < 50%; viability at 0.5 µM (A549 [16]): < 50%
21 | Oc1ccc(-c2nnc(Nc3csc(-c4ccccc4)c3)s2)cc1 | 24 µM | 57 µM | 26 µM | 58 µM | 15 µM | 8 µM | –
22 | Cc1ccc(-c2cc(Nc3nnc(-c4ccc(O)cc4)s3)cs2)cc1 | 8 µM | 14 µM | 17 µM | 8 µM | 6 µM | 6 µM | –
23 | COc1cc(OC)cc(-c2nnc(Nc3csc(-c4ccccc4)c3)s2)c1 | – | > 100 µM | – | 92 µM | – | – | viability at 100 µM (MCF7 [13]): < 50%; viability at 100 µM (A549 [17]): < 50%; viability at 50 µM [24]: < 50%; viability at 50 µM [25]: < 50%
24 | COc1cc(OC)cc(-c2nnc(Nc3csc(-c4ccc(C)cc4)c3)s2)c1 | – | > 100 µM | – | – | – | – | viability at 10 µM (A549 [26]): < 50%; viability at 10 µM [27]: < 50%; viability at 5 µM [11]: < 50%; viability at 1 µM [10]: < 50%; viability at 5 µM (MCF7 [28]): < 50%
25 | COc1ccc(-c2nnc(Nc3csc(-c4ccccc4)c3)s2)cc1OC | 92 µM | > 100 µM | – | > 100 µM | > 100 µM | – | viability at 0.5 µM [18]: < 50%; viability at 100 µM [29]: < 50%
26 | COc1ccc(-c2nnc(Nc3csc(-c4ccc(C)cc4)c3)s2)cc1OC | – | > 100 µM | – | > 100 µM | – | – | viability at 50 µM (MCF7 [30]): < 50%; viability at 5 µM [31]: < 50%; viability at 5 µM [11]: < 50%; viability at 0.5 µM (A549 [16]): < 50%

Source: ChEMBL document CHEMBL3286222, “Synthesis and antiproliferative studies of 5-aryl-2-(3-thienylamino)-1,3,4-thiadiazoles” (Bioorg Med Chem Lett, 2014)
